# Measured values from paper PMC3499368, “Evolution of Minimal Specificity and Promiscuity in Steroid Hormone Receptors” (PLoS Genetics, 2012).
# Like-named read-outs stand apart in the source and are kept apart here.
# Experiments:
# Assay type in all cases: cell-based
# AncSR2-LBD = test: luciferase reporter gene assay, Gal4-DBD fusion of AncSR2-LBD in CHO-K1 cells, activation; conditions: for Ratio H1/H2 of EC50, preference for 17-acetyl vs. 17-hydroxy group / Ratio H2/H1 of EC50, preference for 17-acetyl vs. 17-hydroxy group: AncSR2, Table S5 section d, pairs H1/H2: 13/6, 17/8, 15/9, 16/10, 19/23; for EC50: AncSR2, representative dose activation curves (Fig. S4) and Table S5 sections c-i
# From the text: To experimentally test these hypotheses, we synthesized cDNAs for the AncSR1 and AncSR2 LBD protein sequences, expressed them as Gal4-DBD fusion constructs, and characterized their sensitivity to hormones using luciferase reporter gene assays. […] It was unresponsive to a broad array of androgens, progestagens, and corticosteroids, as well as cholesterol (Figure 2A, Figure S3).
# For AncSR2, we identified all plausible alternate reconstructions (those with posterior probability >0.20 excluding biochemically similar K/R, D/E, S/T, and I/L differences) and introduced each alternate state individually into the AncSR2 background using the Quikchange Mutagenesis kit (Stratagene), verified clones by sequencing, and repeated the activation assays with each version of AncSR2 (Figure S6). The ML AncSR2 sequence reconstructed on the ML tree had high baseline activation in the absence of ligand; this phenotype is almost certainly an artifact, because constitutive baseline activity is not present in any of AncSR2's extant descendants; it is well-established that some amino acid replacements can cause nuclear receptors to become constitutive by marginally stabilizing the active conformation in the absence of hormone. […] The “constitutive” Leu79 state is weakly supported on the ML tree (PP = 0.59), and has no support (PP = 0.00) on the phylogeny that is most parsimonious in terms of gene duplications and losses; in contrast, the “non-constitutive” state Met79 has PP = 0.41 on the ML tree and PP = 1.00 on the rearranged gene duplication/loss tree (Figure S12, Table S8). The AncSR2 sequence used for all experiments reported in the text therefore contains state Met79. The other alternate reconstructions were then reintroduced into this AncSR2 sequence: none qualitatively changed the receptor's sensitivity to the various classes of steroid hormones, except for A171V, which conferred constitutive activity (Figure S6).
# AncSR1-LBD = test: luciferase reporter gene assay, Gal4-DBD fusion of AncSR1-LBD in CHO-K1 cells, activation
# From the text: To experimentally test these hypotheses, we synthesized cDNAs for the AncSR1 and AncSR2 LBD protein sequences, expressed them as Gal4-DBD fusion constructs, and characterized their sensitivity to hormones using luciferase reporter gene assays.
# AncSR1_Alt1 = test: luciferase reporter assay, alternative reconstruction AncSR1_Alt1; conditions: for EC50: Alt1, Fig. S5B
# From the text: (§1) To determine the robustness of functional inferences to statistical uncertainty in the reconstruction of AncSR1 and AncSR2, we used two approaches. AncSR1 had too many ambiguously reconstructed sites to examine each such residue individually, so we computationally sampled from the posterior probability distribution of reconstructed amino acid states to generate a cloud of possible ancestral sequences, each harboring a large number of alternate states. Specifically, we generated 1,000,000 possible ancestral sequences by sampling from the posterior probability distribution of states at each site. […] We synthesized these five radically alternative ancestral reconstructions de novo and repeated the functional assays.
# (§2) A) Distribution of posterior probabilities of 1 million protein sequences assembled by sampling amino acid states at each site from the posterior probability distribution for AncSR1 LBD. The ML reconstruction (AncSR1-ML) and the five alternative sequences with the highest posterior probability (Alt1-Alt5) in the 1 million samples are […]
# (§3) The column height and error bars indicate the mean and SEM of three independent experiments, respectively. […]
# AncSR1_Alt4 = test: luciferase reporter assay, alternative reconstruction AncSR1_Alt4; conditions: for EC50: Alt4, Fig. S5B
# From the text: as §1, §2, §3
# AncSR1_Alt2 = test: luciferase reporter assay, alternative reconstruction AncSR1_Alt2; conditions: for EC50: Alt2, Fig. S5B
# From the text: as §1, §2, §3
# AncSR1_Alt3 = test: luciferase reporter assay, alternative reconstruction AncSR1_Alt3; conditions: for EC50: Alt3, Fig. S5B
# From the text: as §1, §2, §3
# AncSR1_Alt5 = test: luciferase reporter assay, alternative reconstruction AncSR1_Alt5; conditions: for EC50: Alt5, Fig. S5B
# From the text: as §1, §2, §3
# [1] = listed as given under Hormone 1
# [2] = AncSR1, Table S5 section b, pairs H1/H2: 18/19, 22/20, 8/23, listed as given under Hormone 1
# [3] = AncSR1, representative dose activation curves (Fig. S3) and Table S5 section b
# [4] = AncSR2, Table S5 section e, pairs H1/H2: 18/17, 9/6, 15/13, listed as given under Hormone 1
# [5] = AncSR2, Table S5 section i, pairs H1/H2: 8/6, 17/13, 18/15, listed as given under Hormone 1
smiles,measurement,setting,value
C[C@]12CC[C@H]3[C@@H](CC=C4C[C@@H](O)CC[C@@]43C)[C@@H]1CC[C@@H]2O [5-androstenediol],"Ratio H1/H2 of EC50, preference for 17-acetyl vs. 17-hydroxy group",AncSR2-LBD; [1],21.84
same,"Ratio H2/H1 of EC50, preference for 17-acetyl vs. 17-hydroxy group",AncSR2-LBD; [1],0.05
same,EC50,AncSR2-LBD,0.083 µM
CC(=O)C1CCC2C3CC=C4CC(O)CCC4(C)C3CCC12C (centres unmarked) [5-pregnenolone],EC50,AncSR2-LBD; read-out: EC50,0.0038 µM
C[C@]12CCC(=O)C=C1CC[C@@H]1[C@@H]2[C@@H](O)C[C@]2(C=O)[C@@H](C(=O)CO)CC[C@@H]12 [aldosterone],EC50,AncSR2-LBD; read-out: EC50,0.0019 µM
C[C@]12CCC(=O)C=C1CC[C@@H]1[C@@H]2CC[C@]2(C)C(=O)CC[C@@H]12 [4-androstenedione],"Ratio H1/H2 of EC50, preference for aromatized A-ring",AncSR1-LBD; [2],144.93
same,"Ratio H2/H1 of EC50, preference for aromatized A-ring",AncSR1-LBD; [2],0.01
same,EC50,AncSR1-LBD; [3],> 10 µM
same,EC50,AncSR2-LBD,0.411 µM
C[C@@H](O)[C@H]1CC[C@H]2[C@@H]3CCC4=CC(=O)CC[C@]4(C)[C@H]3CC[C@]12C [20β hydroxyprogesterone],EC50,AncSR2-LBD; read-out: EC50,0.01 µM
C[C@]12CC[C@@H]3c4ccc(O)cc4CC[C@H]3[C@@H]1CCC2=O [estrone],EC50,AncSR1_Alt1,0.133 µM
same,EC50,AncSR1_Alt4,0.844 µM
same,EC50,AncSR1_Alt2,3 µM
same,EC50,AncSR1-LBD; [3],0.069 µM
same,EC50,"AncSR1-LBD; AncSR1-ML, Fig. S5B",0.208 µM
same,EC50,AncSR1_Alt3,0.042 µM
same,EC50,AncSR1_Alt5,0.223 µM
CC(=O)C1CCC2C3CCC4=CC(O)CCC4(C)C3CCC12C (centres unmarked) [4-pregnenolone],"Ratio H1/H2 of EC50, preference for 3-hydroxy vs. 3-keto group",AncSR2-LBD; [4],0.40
same,"Ratio H2/H1 of EC50, preference for 3-hydroxy vs. 3-keto group",AncSR2-LBD; [4],2.50
same,EC50,AncSR2-LBD,0.0022 µM
C[C@]12CC[C@@H]3c4ccc(O)cc4CC[C@H]3[C@@H]1C[C@@H](O)[C@@H]2O [estriol],EC50,AncSR1_Alt1,0.322 µM
same,EC50,AncSR1_Alt4,2.01 µM
same,EC50,AncSR1_Alt2,2.22 µM
same,EC50,AncSR1-LBD; [3],0.97 µM
same,EC50,"AncSR1-LBD; AncSR1-ML, Fig. S5B",0.974 µM
same,EC50,AncSR1_Alt3,0.149 µM
same,EC50,AncSR1_Alt5,0.39 µM
C[C@]12CCC(=O)C[C@@H]1CC[C@@H]1[C@@H]2CC[C@]2(C)[C@@H](O)CC[C@@H]12 [dihydrotestosterone],activation (in words),"AncSR1_Alt1; Alt1, fold activation at 10^-6 M, Fig. S5C",none are activated
same,activation (in words),"AncSR1_Alt4; Alt4, fold activation at 10^-6 M, Fig. S5C",none are activated
same,activation (in words),"AncSR1_Alt2; Alt2, fold activation at 10^-6 M, Fig. S5C",none are activated
same,activation (in words),"AncSR1-LBD; AncSR1-ML, fold activation at 10^-6 M, Fig. S5C",none are activated
same,activation (in words),"AncSR1_Alt3; Alt3, fold activation at 10^-6 M, Fig. S5C",none are activated
same,EC50,AncSR2-LBD,0.172 µM
same,activation (in words),"AncSR1_Alt5; Alt5, fold activation at 10^-6 M, Fig. S5C",none are activated
CC/C(=C(/CC)c1ccc(O)cc1)c1ccc(O)cc1 [Diethylstilbestrol],activation of AncSR1 (in words),AncSR1-LBD; luciferase reporter,activated
same,activation of AncSR2 (in words),AncSR2-LBD; luciferase reporter,not activated
CC12CCC3C4CCC(=O)C=C4CCC3C1CCC2O (centres unmarked) [19-nortestosterone],"Ratio H1/H2 of EC50, preference for 17-acetyl vs. 17-hydroxy group",AncSR2-LBD; [1],43.13
same,"Ratio H2/H1 of EC50, preference for 17-acetyl vs. 17-hydroxy group",AncSR2-LBD; [1],0.02
same,"Ratio H1/H2 of EC50, preference for 19-H vs. 19-methyl group",AncSR2-LBD; [5],0.59
same,"Ratio H2/H1 of EC50, preference for 19-H vs. 19-methyl group",AncSR2-LBD; [5],1.68
same,EC50,AncSR2-LBD,0.069 µM
